Source: publication PMC12136037, “Type II kinase inhibitors that target Parkinson’s disease–associated LRRK2” (Science Advances, 2025)

Columns and labels:
Test in all cases: DSF 100 kinase selectivity screen;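 further: compound tested at 20 µM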
Format in all cases: binding
[1] = target: T1, ~100 representative kinases (Homo sapiens, UniProt Q8TD08); conditions: protein MAPK15; average of three replicates
T1 construct: Recombinant protein kinase domains with a concentration of 2 μM
T1 sequence (Q8TD08 1-544): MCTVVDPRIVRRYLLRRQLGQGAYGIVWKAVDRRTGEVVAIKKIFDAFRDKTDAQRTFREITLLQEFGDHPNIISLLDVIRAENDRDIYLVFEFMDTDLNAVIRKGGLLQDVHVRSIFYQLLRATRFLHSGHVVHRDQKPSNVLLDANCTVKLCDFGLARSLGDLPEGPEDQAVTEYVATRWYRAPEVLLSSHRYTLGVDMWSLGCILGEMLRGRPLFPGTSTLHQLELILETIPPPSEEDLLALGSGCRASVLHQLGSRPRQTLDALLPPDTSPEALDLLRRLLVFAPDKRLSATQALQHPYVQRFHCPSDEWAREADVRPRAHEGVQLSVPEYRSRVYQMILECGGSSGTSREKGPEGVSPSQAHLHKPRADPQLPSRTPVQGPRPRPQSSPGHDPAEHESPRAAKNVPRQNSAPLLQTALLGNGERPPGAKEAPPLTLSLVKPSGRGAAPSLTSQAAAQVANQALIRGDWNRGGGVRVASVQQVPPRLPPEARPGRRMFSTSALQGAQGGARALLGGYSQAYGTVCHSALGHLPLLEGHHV
In short: (§1)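 Each kinase domain, at 2 μM, is mixed with 20 μM test compound and SYPRO Orange in Hepes (20 mM, pH 7.5) with 500 mM NaCl. Temperature is then raised at 3°C/min and fluorescence-monitored unfolding yields the melting temperature change, ΔTm in degrees Celsius.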

[2] = target: T2, ~100 representative kinases (Homo sapiens, UniProt Q16566); conditions: Protein CAMK4; average of three replicates
T2 construct: Recombinant protein kinase domains with a concentration of 2 μM
T2 sequence (Q16566 1-473): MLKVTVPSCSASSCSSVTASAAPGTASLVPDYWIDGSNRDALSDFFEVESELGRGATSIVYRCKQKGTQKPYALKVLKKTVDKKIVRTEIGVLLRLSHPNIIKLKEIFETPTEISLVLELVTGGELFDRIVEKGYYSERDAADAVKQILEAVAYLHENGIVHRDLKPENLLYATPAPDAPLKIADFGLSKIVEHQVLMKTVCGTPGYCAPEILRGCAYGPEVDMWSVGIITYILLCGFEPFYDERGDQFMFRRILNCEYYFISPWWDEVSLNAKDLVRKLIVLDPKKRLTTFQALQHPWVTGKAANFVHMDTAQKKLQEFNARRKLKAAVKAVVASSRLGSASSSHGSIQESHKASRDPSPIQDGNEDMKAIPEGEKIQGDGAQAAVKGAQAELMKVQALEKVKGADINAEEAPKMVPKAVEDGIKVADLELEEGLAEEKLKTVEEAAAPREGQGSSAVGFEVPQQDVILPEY
In short: as §1

[3] = target: T3, ~100 representative kinases (Homo sapiens, UniProt O14976); conditions: protein GAK; average of three replicates
T3 construct: Recombinant protein kinase domains with a concentration of 2 μM
T3 sequence (O14976 1-1311): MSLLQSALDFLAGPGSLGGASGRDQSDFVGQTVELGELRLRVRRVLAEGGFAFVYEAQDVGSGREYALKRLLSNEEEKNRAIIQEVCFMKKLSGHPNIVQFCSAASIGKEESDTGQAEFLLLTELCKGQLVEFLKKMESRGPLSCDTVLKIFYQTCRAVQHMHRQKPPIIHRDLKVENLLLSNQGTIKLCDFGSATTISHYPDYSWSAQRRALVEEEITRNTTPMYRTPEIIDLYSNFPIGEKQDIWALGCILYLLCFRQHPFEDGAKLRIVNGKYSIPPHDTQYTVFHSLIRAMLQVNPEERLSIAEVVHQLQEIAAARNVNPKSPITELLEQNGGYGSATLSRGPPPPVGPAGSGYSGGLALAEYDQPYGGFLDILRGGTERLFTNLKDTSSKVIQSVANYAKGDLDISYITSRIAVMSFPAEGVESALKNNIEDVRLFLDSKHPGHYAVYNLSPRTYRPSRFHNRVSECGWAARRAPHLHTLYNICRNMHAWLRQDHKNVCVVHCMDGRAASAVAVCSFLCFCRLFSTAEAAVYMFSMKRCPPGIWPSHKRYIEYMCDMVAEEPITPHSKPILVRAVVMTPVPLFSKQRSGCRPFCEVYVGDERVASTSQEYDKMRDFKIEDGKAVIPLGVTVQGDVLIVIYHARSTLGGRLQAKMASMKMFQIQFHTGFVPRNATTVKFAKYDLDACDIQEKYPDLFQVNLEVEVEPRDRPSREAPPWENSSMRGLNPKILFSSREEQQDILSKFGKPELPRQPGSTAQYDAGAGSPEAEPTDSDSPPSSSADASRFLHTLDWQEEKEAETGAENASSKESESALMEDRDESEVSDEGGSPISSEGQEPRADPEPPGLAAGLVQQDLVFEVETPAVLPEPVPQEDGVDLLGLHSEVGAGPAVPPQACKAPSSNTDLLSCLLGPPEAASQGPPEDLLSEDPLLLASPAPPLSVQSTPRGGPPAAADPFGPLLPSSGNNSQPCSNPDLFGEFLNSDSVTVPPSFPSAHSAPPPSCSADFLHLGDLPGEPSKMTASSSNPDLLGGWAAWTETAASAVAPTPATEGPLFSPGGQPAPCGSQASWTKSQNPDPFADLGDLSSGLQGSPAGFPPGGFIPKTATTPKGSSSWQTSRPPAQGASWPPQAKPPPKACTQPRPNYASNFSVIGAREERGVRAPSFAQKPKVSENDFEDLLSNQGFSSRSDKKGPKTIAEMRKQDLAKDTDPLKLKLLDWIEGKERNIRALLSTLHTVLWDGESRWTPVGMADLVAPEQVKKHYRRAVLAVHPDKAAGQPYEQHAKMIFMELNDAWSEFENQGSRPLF
In short: as §1

Cc1ccc(C(=O)Nc2ccc(CN3CCN(C)CC3)c(C(F)(F)F)c2)cc1C#Cc1c[nH]c2ncnc(N3CCOCC3)c12 [Compound 1]
dTm [1]: 8.49 K
dTm [2]: 1.39 K
dTm [3]: 3.03 K

O=C(Nc1ccc(F)cc1)C1(C(=O)Nc2cccc(-c3c[nH]c4ncnc(N5CCOCC5)c34)c2)CC1 [Compound 2]
dTm [1]: 10.01 K
dTm [2]: 2.18 K
dTm [3]: 0.23 K

O=C(Nc1cccc(-c2c[nH]c3ncnc(N4CCOCC4)c23)c1)c1cccn(-c2ccc(F)cc2)c1=O [Compound 4]
dTm [1]: 7.29 K
dTm [2]: 1.59 K
dTm [3]: 0.0652 K

Cc1cc(NC(=O)C2(C(=O)Nc3ccc(F)cc3)CC2)cc(-c2c[nH]c3ncnc(N4CCOCC4)c23)c1 [Compound 6]
dTm [1]: 5.91 K
dTm [2]: 1.41 K
dTm [3]: 0.83 K

O=C(Nc1cccc(-c2c[nH]c3ncnc(N4CCOCC4)c23)c1)C1(C(=O)Nc2cccc3c2CCC3)CC1 [Compound 11]
dTm [1]: 5.24 K
dTm [2]: 2.09 K
dTm [3]: -0.59 K

O=C(Nc1ccccc1)C1(C(=O)Nc2cccc(-c3c[nH]c4ncnc(N5CCOCC5)c34)c2)CC1 [Compound 12]
dTm [1]: 8.68 K
dTm [2]: 1.57 K
dTm [3]: 1.44 K

O=C(Nc1ccc(Cl)cc1)C1(C(=O)Nc2cccc(-c3c[nH]c4ncnc(N5CCOCC5)c34)c2)CC1 [Compound 13]
dTm [1]: 9.74 K
dTm [2]: 3.78 K
dTm [3]: 1.60 K

Cc1ccc(NC(=O)C2(C(=O)Nc3cccc(-c4c[nH]c5ncnc(N6CCOCC6)c45)c3)CC2)cc1 [Compound 14]
dTm [1]: 5.81 K
dTm [2]: 1.05 K
dTm [3]: 0.81 K

CCc1ccc(NC(=O)C2(C(=O)Nc3cccc(-c4c[nH]c5ncnc(N6CCOCC6)c45)c3)CC2)cc1 [Compound 15]
dTm [1]: 5.20 K
dTm [2]: 2.51 K
dTm [3]: 0.09 K

COc1ccc(NC(=O)C2(C(=O)Nc3cccc(-c4c[nH]c5ncnc(N6CCOCC6)c45)c3)CC2)cc1 [Compound 16]
dTm [1]: 2.17 K
dTm [2]: -0.20 K
dTm [3]: 0.0654 K

O=C(Nc1cccc(-c2c[nH]c3ncnc(N4CCOCC4)c23)c1)C1(C(=O)Nc2ccc(F)c(F)c2)CC1 [Compound 17]
dTm [1]: 10.37 K
dTm [2]: 1.60 K
dTm [3]: 1.14 K

O=C(Nc1cccc(-c2c[nH]c3ncnc(N4CCOCC4)c23)c1)C1(C(=O)Nc2ccc(F)c(Cl)c2)CC1 [Compound 18]
dTm [1]: 12.35 K
dTm [2]: 3.34 K
dTm [3]: 1.28 K

O=C(Nc1cccc(-c2c[nH]c3ncnc(N4CCOCC4)c23)c1)C1(C(=O)Nc2ccc(F)c(Br)c2)CC1 [Compound 19]
dTm [1]: 11.25 K
dTm [2]: 4.72 K
dTm [3]: 1.18 K

Cc1cc(NC(=O)C2(C(=O)Nc3cccc(-c4c[nH]c5ncnc(N6CCOCC6)c45)c3)CC2)ccc1F [Compound 20]
dTm [1]: 12.42 K
dTm [2]: 4.77 K
dTm [3]: 1.48 K

COc1cc(NC(=O)C2(C(=O)Nc3cccc(-c4c[nH]c5ncnc(N6CCOCC6)c45)c3)CC2)ccc1F [Compound 21]
dTm [1]: 10.35 K
dTm [2]: 2.09 K
dTm [3]: 0.54 K

CC(C)(C)c1cccc(NC(=O)C2(C(=O)Nc3cccc(-c4c[nH]c5ncnc(N6CCOCC6)c45)c3)CC2)c1 [Compound 22]
dTm [1]: 6.32 K
dTm [2]: 1.51 K
dTm [3]: -2.23 K

O=C(Nc1cccc(-c2c[nH]c3ncnc(N4CCOCC4)c23)c1)C1(C(=O)Nc2ccc(F)cc2F)CC1 [Compound 23]
dTm [1]: 6.01 K
dTm [2]: 0.57 K
dTm [3]: 0.67 K

Cc1cc(F)ccc1NC(=O)C1(C(=O)Nc2cccc(-c3c[nH]c4ncnc(N5CCOCC5)c34)c2)CC1 [Compound 24]
dTm [1]: 4.07 K
dTm [2]: 0.42 K
dTm [3]: 0.84 K

O=C(Nc1cccc(-c2c[nH]c3ncnc(N4CCOCC4)c23)c1)C1(C(=O)Nc2cc(Br)c(F)cc2F)CC1 [Compound 25]
dTm [1]: 3.06 K
dTm [2]: 1.53 K
dTm [3]: 0.71 K

O=C(Nc1cccc(-c2c[nH]c3ncnc(N4CCOCC4)c23)c1)C1(C(=O)Nc2ccc(F)c(Br)c2F)CC1 [Compound 26]
dTm [1]: 5.05 K
dTm [2]: 1.91 K
dTm [3]: 0.91 K

O=C(Nc1cc(F)cc(Br)c1)C1(C(=O)Nc2cccc(-c3c[nH]c4ncnc(N5CCOCC5)c34)c2)CC1 [Compound 27]
dTm [1]: 4.52 K
dTm [2]: 0.92 K
dTm [3]: -0.90 K

CC(C)(C)c1cc(NC(=O)Nc2cccc(-c3c[nH]c4ncnc(N5CCOCC5)c34)c2)n(-c2ccc3ncccc3c2)n1 [Compound 28]
dTm [1]: 14.38 K
dTm [2]: 3.69 K
dTm [3]: 7.34 K

Cc1ccc(-n2nc(C(C)(C)C)cc2NC(=O)Nc2cccc(-c3c[nH]c4ncnc(N5CCOCC5)c34)c2)cc1 [Compound 29]
dTm [1]: 16.65 K
dTm [2]: 2.94 K
dTm [3]: 0.00 K

Cc1ccc(-n2nc(C(C)(C)C)cc2NC(=O)Nc2cccc(-c3c[nH]c4nc(Cl)nc(N5CCOCC5)c34)c2)cc1 [Compound 30]
dTm [1]: 6.72 K
dTm [2]: -1.02 K
dTm [3]: -1.53 K

CC(=O)N1CCN(c2nc(Cl)nc3[nH]cc(-c4cccc(NC(=O)Nc5cc(C(C)(C)C)nn5-c5ccc(C)cc5)c4)c23)CC1 [Compound 31]
dTm [1]: 8.84 K
dTm [2]: -0.77 K
dTm [3]: 3.32 K

CCSc1nc(NC)c2c(-c3cccc(NC(=O)Nc4cc(C(C)(C)C)nn4-c4ccc(C)cc4)c3)c[nH]c2n1 [Compound 32]
dTm [1]: 3.18 K
dTm [2]: 0.28 K
dTm [3]: -1.07 K

COc1cc2c(Oc3ccc(NC(=O)C4(C(=O)Nc5ccc(F)cc5)CC4)cc3F)ccnc2cc1OCCCN1CCOCC1 [Foretinib, reference compound]
dTm [1]: 8.58 K
dTm [3]: 2.91 K

Cc1ccc(C(=O)Nc2ccc(CN3CCN(C)CC3)c(C(F)(F)F)c2)cc1C#Cc1cnc2cccnn12 [Ponatinib, reference compound]
dTm [2]: 1.32 K

CN[C@@H]1C[C@H]2O[C@@](C)([C@@H]1OC)n1c3ccccc3c3c4c(c5c6ccccc6n2c5c31)C(=O)NC4 [Staurosporine]
dTm [2]: 8.45 K
